In patent US12509444B2, “Compounds and methods for CD73 modulation and indications therefor” (Plexxikon Inc., priority 2019, dated 2025):

Experiments:
[1] = target: T1, Human CD73 (amino acid residues 27-549) (Homo sapiens, UniProt P21589); test: CD73 enzymatic assay (luciferase-based indirect assay, CellTiter-Glo); format: biochemical; conditions: 0.4 nM CD73, 150 μM AMP, 1 hour at room temperature
T1 construct: Human CD73 (amino acid residues 27-549); His tag (N); made in house; host or cells: E. coli
T1 sequence (P21589 27-549): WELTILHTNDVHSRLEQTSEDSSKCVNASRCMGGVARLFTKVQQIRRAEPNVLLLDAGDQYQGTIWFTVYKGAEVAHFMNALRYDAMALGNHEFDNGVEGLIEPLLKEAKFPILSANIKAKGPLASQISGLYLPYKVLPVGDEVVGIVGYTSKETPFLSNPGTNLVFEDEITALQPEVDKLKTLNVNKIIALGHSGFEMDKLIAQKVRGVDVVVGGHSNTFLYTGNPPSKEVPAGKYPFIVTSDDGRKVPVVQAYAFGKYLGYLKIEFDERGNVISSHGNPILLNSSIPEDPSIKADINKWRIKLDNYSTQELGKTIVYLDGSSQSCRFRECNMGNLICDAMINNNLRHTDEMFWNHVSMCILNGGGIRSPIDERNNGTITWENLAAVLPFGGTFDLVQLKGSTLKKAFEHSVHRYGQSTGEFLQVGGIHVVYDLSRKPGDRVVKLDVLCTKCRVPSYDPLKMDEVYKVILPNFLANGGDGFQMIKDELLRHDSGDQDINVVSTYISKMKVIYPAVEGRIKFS
Method in brief: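 Residual AMP inhibits luciferase, so luminescence reports CD73 turnover; read with CellTiter-Glo 2.0 plus 1 μM final ATP, 30 min. Reaction used 0.4 nM N-His CD73 (27-549, E. coli), 150 μM AMP, HEPES pH 7.4 with Tween 20, 1 h at room temperature. IC50 fitted by nonlinear regression.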

human CD73 = target: T2, human CD73 (Homo sapiens, UniProt P21589); test: Inhibitor activity against CD73 in cell based assay (CD73 expressing CHO-K1 cells); conditions: CHO-K1 cells expressing human CD73, 150 μM AMP, 4 hours of incubation; read-out: CHO-K1 CELL VARIANT: CD73 IC50
T2 construct: expressed in transfected cells
T2 sequence (P21589 27-549): T1 sequence (P21589 27-549)
Method in brief: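 Residual supernatant AMP was quantified via CellTiter-Glo luminescence (1 μM ATP added, 30 min, room temperature) after a 4 h exposure of human CD73-expressing CHO-K1 cells to 150 μM AMP plus compound, top final 10 μM, 8 points. IC50 came from nonlinear regression of percent inhibition.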

SMILES | IC50 [1] [µM] | IC50 (human CD73) [µM]
O=C(NCC1CCNCC1)O[C@@H]1CCN(c2cn[nH]c(=O)c2Cl)C1 [P-0240, (R)-1-(5-chloro-6-oxo-1,6-dihydropyridazin-4-yl)pyrrolidin-3-yl (piperidin-4-ylmethyl)carbamate] | 0.001 to 10 | 0.001 to 10
CC(=O)N1CCC(CNC(=O)O[C@@H]2CCN(c3cn[nH]c(=O)c3Cl)C2)CC1 [P-0241, (R)-1-(5-chloro-6-oxo-1,6-dihydropyridazin-4-yl)pyrrolidin-3-yl ((1-acetylpiperidin-4-yl)methyl)carbamate] | 0.001 to 10 | 0.001 to 10
O=CN1CCC(CNC(=O)O[C@@H]2CCN(c3cn[nH]c(=O)c3Cl)C2)CC1 [P-0242, (R)-1-(5-chloro-6-oxo-1,6-dihydropyridazin-4-yl)pyrrolidin-3-yl ((1-formylpiperidin-4-yl)methyl)carbamate] | 0.001 to 10 | 0.001 to 10
O=C(N[C@@H]1CC[C@H](NC(=O)c2ccccc2)C1)O[C@@H]1CCN(c2cn[nH]c(=O)c2Cl)C1 [P-0243, (R)-1-(5-chloro-6-oxo-1,6-dihydropyridazin-4-yl)pyrrolidin-3-yl ((1R,3S)-3-benzamidocyclopentyl) carbamate] | 0.001 to 10 | 0.001 to 10
COC(=O)Cn1ncc(N2CC[C@@H](OC(=O)NC3CCC(F)(F)CC3)C2)c(Cl)c1=O [P-0244, methyl (R)-2-(5-chloro-4-(3-(((4,4-difluorocyclohexyl)carbamoyl)oxy)pyrrolidin-1-yl)-6-oxopyridazin-1(6H)-yl)acetate] | 0.001 to 10 | 10 to 100
COCCn1ncc(N2CC[C@@H](OC(=O)NC3CCC(F)(F)CC3)C2)c(Cl)c1=O [P-0245, (R)-1-(5-chloro-1-(2-methoxyethyl)-6-oxo-1,6-dihydropyridazin-4-yl)pyrrolidin-3-yl (4,4-difluorocyclohexyl)carbamate] | 0.001 to 10 | 10 to 100
O=C(NC1CCC(F)(F)CC1)O[C@@H]1CCN(c2cnn(CC(O)CO)c(=O)c2Cl)C1 (stereo partly drawn) [P-0246, (3R)-1-(5-chloro-1-(2,3-dihydroxypropyl)-6-oxo-1,6-dihydropyridazin-4-yl)pyrrolidin-3-yl (4,4-difluorocyclohexyl)carbamate] | 0.001 to 10 | 0.001 to 10
CCS(=O)(=O)N[C@H]1CC[C@H](NC(=O)O[C@@H]2CCN(c3cn[nH]c(=O)c3Cl)C2)CC1 [P-0247, (R)-1-(5-chloro-6-oxo-1,6-dihydropyridazin-4-yl)pyrrolidin-3-yl ((1r,4R)-4-(ethylsulfonamido)cyclohexyl) carbamate] | 0.001 to 10 | 0.001 to 10
N#Cc1ccc(S(=O)(=O)N[C@H]2CC[C@H](NC(=O)O[C@@H]3CCN(c4cn[nH]c(=O)c4Cl)C3)CC2)cc1 [P-0248, (R)-1-(5-chloro-6-oxo-1,6-dihydropyridazin-4-yl)pyrrolidin-3-yl ((1r,4R)-4-((4-cyanophenyl)sulfonamido)cyclohexyl)carbamate] | 0.001 to 10 | 0.001 to 10

Second part, the molecule after the results:

IC50 [1] [µM] | IC50 (human CD73) [µM] | SMILES
0.001 to 10 | 0.001 to 10 | Cn1ncc(N2CC[C@@H](OC(=O)N[C@H]3CC[C@H](NS(=O)(=O)C4CC4)CC3)C2)c(Cl)c1=O [P-0227, (R)-1-(5-chloro-1-methyl-6-oxo-1,6-dihydropyridazin-4-yl)pyrrolidin-3-yl ((1r,4R)-4-(cyclopropanesulfonamido)cyclohexyl)carbamate]
0.001 to 10 | 0.001 to 10 | Cn1ncc(N2CC[C@@H](OC(=O)N[C@H]3CC[C@H](NS(=O)(=O)C4CCCC4)CC3)C2)c(Cl)c1=O [P-0228, (R)-1-(5-chloro-1-methyl-6-oxo-1,6-dihydropyridazin-4-yl)pyrrolidin-3-yl ((1r,4R)-4-(cyclopentanesulfonamido)cyclohexyl)carbamate]
0.001 to 10 | 0.001 to 10 | C[C@]1(O)CC[C@H](NC(=O)O[C@@H]2CCN(c3cn[nH]c(=O)c3Cl)C2)CC1 [P-0229, (R)-1-(5-chloro-6-oxo-1,6-dihydropyridazin-4-yl)pyrrolidin-3-yl ((1r,4R)-4-hydroxy-4-methylcyclohexyl)carbamate]
0.001 to 10 | 0.001 to 10 | CO[C@H]1CC[C@H](NC(=O)O[C@@H]2CCN(c3cn[nH]c(=O)c3Cl)C2)CC1 [P-0230, (R)-1-(5-chloro-6-oxo-1,6-dihydropyridazin-4-yl)pyrrolidin-3-yl ((1r,4R)-4-methoxycyclohexyl)carbamate]
0.001 to 10 | 0.001 to 10 | CO[C@H]1CC[C@@H](NC(=O)O[C@@H]2CCN(c3cn[nH]c(=O)c3Cl)C2)CC1 [P-0231, (R)-1-(5-chloro-6-oxo-1,6-dihydropyridazin-4-yl)pyrrolidin-3-yl ((1s,4S)-4-methoxycyclohexyl)carbamate]
0.001 to 10 | 0.001 to 10 | O=C(NCC1CCS(=O)(=O)CC1)O[C@@H]1CCN(c2cn[nH]c(=O)c2Cl)C1 [P-0232, (R)-1-(5-chloro-6-oxo-1,6-dihydropyridazin-4-yl)pyrrolidin-3-yl ((1,1-dioxidotetrahydro-2H-thiopyran-4-yl)methyl)carbamate]
0.001 to 10 | 0.001 to 10 | O=C(NCC1CCCCC1)O[C@@H]1CCN(c2cn[nH]c(=O)c2Cl)C1 [P-0233, (R)-1-(5-chloro-6-oxo-1,6-dihydropyridazin-4-yl)pyrrolidin-3-yl (cyclohexylmethyl)carbamate]
0.001 to 10 | 0.001 to 10 | O=C(NCCC1CCCC1)O[C@@H]1CCN(c2cn[nH]c(=O)c2Cl)C1 [P-0234, (R)-1-(5-chloro-6-oxo-1,6-dihydropyridazin-4-yl)pyrrolidin-3-yl (2-cyclopentylethyl)carbamate]
0.001 to 10 | 0.001 to 10 | O=C(NCCCO)O[C@@H]1CCN(c2cn[nH]c(=O)c2Cl)C1 [P-0235, (R)-1-(5-chloro-6-oxo-1,6-dihydropyridazin-4-yl)pyrrolidin-3-yl (3-hydroxypropyl)carbamate]
0.001 to 10 | 0.001 to 10 | O=C(NCC1CCOCC1)O[C@@H]1CCN(c2cn[nH]c(=O)c2Cl)C1 [P-0236, (R)-1-(5-chloro-6-oxo-1,6-dihydropyridazin-4-yl)pyrrolidin-3-yl ((tetrahydro-2H-pyran-4-yl)methyl)carbamate]
0.001 to 10 | 0.001 to 10 | O=C(N[C@@H]1CC[C@H](NS(=O)(=O)c2ccccc2F)C1)O[C@@H]1CCN(c2cn[nH]c(=O)c2Cl)C1 [P-0237, (R)-1-(5-chloro-6-oxo-1,6-dihydropyridazin-4-yl)pyrrolidin-3-yl ((1R,3S)-3-((2-fluorophenyl)sulfonamido)cyclopentyl)carbamate]
0.001 to 10 | 0.001 to 10 | Cn1ncc(N2CC[C@@H](OC(=O)N[C@H]3CC[C@H](NS(=O)(=O)c4c(F)cccc4F)CC3)C2)c(Cl)c1=O [P-0238, (R)-1-(5-chloro-1-methyl-6-oxo-1,6-dihydropyridazin-4-yl)pyrrolidin-3-yl ((1r,4R)-4-((2,6-difluorophenyl)sulfonamido)cyclohexyl)carbamate]
0.001 to 10 | 0.001 to 10 | Cn1ncc(N2CC[C@@H](OC(=O)N[C@H]3CC[C@H](NS(=O)(=O)c4ccccc4Br)CC3)C2)c(Cl)c1=O [P-0239, (R)-1-(5-chloro-1-methyl-6-oxo-1,6-dihydropyridazin-4-yl)pyrrolidin-3-yl ((1r,4R)-4-((2-bromophenyl)sulfonamido)cyclohexyl)carbamate]
